From US20110015208A1, “PHARMACEUTICAL COMPOSITIONS CONTAINING DOPAMINE RECEPTOR LIGANDS AND METHODS OF TREATMENT USING DOPAMINE RECEPTOR LIGANDS” (priority 2007, published 2011)

Key:
[1] = system: d-amphetamine/chlordiazepoxide mixture (AMPH/CDP)-induced hyperactivity in mice; assay: d-Amphetamine/chlordiazepoxide (AMPH/CDP) hyperactivity test (Example 4A); assay type: in vivo, mouse; details: test condition AMPH/CDP; 400 mg/kg IP, 30 min pretreatment
Protocol: (§1) Cariprazine hydrochloride and escitalopram oxalate were evaluated for anti-manic effects using the amphetamine/chlordiazepoxide (AMPH/CDP) hyperactivity test.
(§2) Male C57B1/6J mice from Jackson Laboratories (Bar Harbor, Me.) were used in this study. Mice were received at 6-weeks of age. Upon receipt, mice were assigned unique identification numbers (tail marked) and were group housed with 4 mice/cage. All animals remained housed in groups of four during the remainder of the study. All mice were acclimated to the colony room for at least two weeks prior to testing and were subsequently tested at an average age of 8 weeks of age. During the period of acclimation, mice were examined on a regular basis, handled, and weighed to assure adequate health and suitability. Mice were maintained on a 12/12 light/dark cycle. The room temperature was maintained between 20 and 23° C. with a relative humidity maintained between 30% and 70%. Chow and water were provided ad libitum for the duration of the study. In each test, animals were randomly assigned across treatment groups.
(§3) d-Amphetamine sulfate (Sigma, 4.0 mg/kg) and chlordiazepoxide (CDP; Sigma, 2.5 mg/kg) were dissolved in sterile water and were administered intraperitoneally at a dose volume of 10 ml/kg.
(§4) Distance traveled is measured by consecutive beam breaks.
(§5) Data was analyzed by analysis of variance (ANOVA) followed by Fisher PLSD post-hoc analysis when appropriate. An effect was considered significant if p<0.05. Outliers that fell above and below two standard deviations from the mean were removed from the final analysis.

[2] = system: d-amphetamine/chlordiazepoxide mixture (AMPH/CDP)-induced hyperactivity in mice; assay: d-Amphetamine/chlordiazepoxide (AMPH/CDP) hyperactivity test (Example 4B); assay type: in vivo, mouse; details: test condition AMPH/CDP; 400 mg/kg IP
Protocol: as §1
(§6) Male C57B1/6J mice (8 weeks old) from Jackson Laboratories (Bar Harbor, Me.) were used in this study. Upon receipt, mice were assigned unique identification numbers (tail marked) and were group housed (4 mice/cage) in OPTI mouse ventilated cages. All animals remained housed in groups of four during the remainder of the study. During the period of acclimation, mice were examined on a regular basis, handled, and weighed to assure adequate health and suitability. Mice were maintained on a 12/12 light/dark cycle. The room temperature was maintained between 20 and 23° C. with a relative humidity maintained between 30% and 70%. Chow and water were provided ad libitum for the duration of the study. In each test, animals were randomly assigned across treatment groups.
as §3, §4, §5

[3] = system: basal locomotor activity of mice; assay: Open field, basal locomotor activity of mice (Example 4A); assay type: in vivo, mouse; details: test condition water; 400 mg/kg IP, 30 min pretreatment
Protocol: as §1, §2, §4, §5

[4] = system: basal locomotor activity of mice; assay: Open field, basal locomotor activity of mice (Example 4B); assay type: in vivo, mouse; details: test condition water; 400 mg/kg IP
Protocol: as §1, §6, §4, §5

[5] = system: chronic mild stress (CMS) model of depression; assay: Chronic mild stress (CMS) model of depression, sucrose consumption (Example 2); assay type: in vivo, rat; details: imipramine 10 mg/kg IP once daily, stressed animals
Description: This study evaluated the antidepressant effect of cariprazine hydrochloride in the chronic mild stress (CMS) model of depression. A comparison to the efficacy of the tricyciclic antidepressant compound imipramine was also made.
Male Wistar rats were adapted to laboratory and housing conditions for 3 weeks, followed by adoption to consumption of 1% sucrose solution for an additional 5 weeks before being separated into control and to-be-stressed groups.
Chronic stress was applied to the allocated group for seven weeks. The following stressors were used: food and/or water deprivation, cage tilting (45 degrees backwards), intermittent illumination, paired housing, soiled cage (250 mL of tap water in sawdust bedding), stroboscopic illumination (150 flashed per minute), no stress. All stressors were 10-14 hours in duration and were applied individually and continuously, once or twice weekly, during the day and at night.
Consumption of sucrose solution was measured in 1-hour tests conducted on all animals (i.e., controls and stressed) once weekly throughout the entire experiment. The tests were preceded by 14 hours of food and water deprivation. On the basis of their sucrose intakes following the initial 2 weeks of stress, both stressed and control animals received once-daily chronic (5 weeks) IP injections of vehicle (1% methyl cellulose, 1 mL/kg), cariprazine hydrochloride (0.0625, 0.25 or 1.0 mg/kg), or imipramine (10 mg/kg) as reference treatment. […] These animals were considered weak responders/non-responders and were eliminated from the analysis.

[6] = system: chronic mild stress (CMS) model of depression; assay: Chronic mild stress (CMS) model of depression, sucrose consumption (Example 3); assay type: in vivo, rat; details: imipramine, reference treatment in parallel studies
Description: Similar to the study described in Example 2, additional studies were undertaken to further evaluate the antidepressant effect of cariprazine hydrochloride, administered alone, or in combination with escitalopram oxalate, in a chronic mild stress model of depression
In the chronic mild stress (CMS) model, rats subjected to a variety of mild stressors for a prolonged period of time show a substantial decrease in their responsiveness to rewarding stimuli. This deficit is usually monitored by a decrease in the consumption of a 1% sucrose solution, but can also be seen in other tests, such as place preference conditioning or intracranial self-stimulation. The subsensitivity to reward appears to reflect anhedonia (inability to experience pleasure), which is a core symptom of major depressive disorders. Clinically approved antidepressants have shown activity in this animal model by reversing the effects of CMS on sucrose consumption. See, e.g., Sanchez C, Gruca P, Papp M, Behavioural Pharmacology 14, 465-470, 2003.
Male Wistar rats (Charles River, Germany) were brought into the laboratory two months before the start of the experiment. Except as described below, the animals were singly housed with food and water freely available, and were maintained on a 12-h light/dark and in a constant temperature (22±2° C.) and humidity (50±5%) conditions.
The animals were first trained to consume a 1% sucrose solution; training consisted of nine 1 h baseline tests in which sucrose was presented, in the home cage, following 14 h food and water deprivation. The sucrose intake was measured by weighing pre-weighed bottles containing the sucrose solution, at the end of the test. Subsequently, sucrose consumption was monitored, under similar conditions, at weekly intervals throughout the whole experiment.
On the basis of their sucrose intakes in the final baseline test, the animals were divided into two matched groups. One group of animals was subjected to the chronic mild stress procedure for a period of 7 consecutive weeks. Each week of stress regime consisted of: two periods of food or water deprivation, two periods of 45 degree cage tilt, two periods of intermittent illumination (lights on and off every 2 h), two periods of soiled cage (250 ml water in sawdust bedding), one period of paired housing, two periods of low intensity stroboscopic illumination (150 flashes/min), and three periods of no stress. All stressors were 10-14 h of duration and were applied individually and continuously, day and night. Control animals were housed in separate rooms and had no contact with the stressed animals. They were deprived of food and water for 14 h preceding each sucrose test, but otherwise food and water were freely available in the home cage.

## CCCC(CCC)C(=O)O [Valproate]
[1]
  Total Distance Traveled [mean ± SEM]: 17496 ± 1788 cm/60 min
[2]
  Total Distance Traveled [mean ± SEM]: 18478 ± 2961 cm/60 min
[3]
  Total Distance Traveled [mean ± SEM]: 4471 ± 298 cm/60 min
[4]
  Total Distance Traveled [mean ± SEM]: 3365 ± 612 cm/60 min

## CN(C)CCCN1c2ccccc2CCc2ccccc21 [imipramine, reference compound]
[5]; 5 weeks
  CMS-induced decrease in consumption of 1% sucrose solution: fully reversed
[5]
  onset of action: effect on sucrose drinking evident at: 3 Week
[6]
  time until effect on sucrose consumption reached significance: after three weeks of administration
